{TEG} = triethylene glycol 5' moiety of the PMO, as defined in the publication
Columns and labels:
Klebsiella pneuomoniae = experiment: MIC of meropenem with added NDM-1-targeted PPMO; type: cell-based; conditions: without PPMO, data not shown
B. cenocepacia H14277 = experiment: PPMO MIC, pan-resistant strain (FIG. 10); type: cell-based
Procedure: In B. cenocepacia K56-2 (a genome-sequenced clinical CF isolate; Panel A) all three PPMOs caused a significant reduction of growth with one PPMO (PPMO #19; SEQ ID NO: 27; 16 μM) causing>3-log reduction of growth compared to the starting inoculum, a strong bactericidal effect. Importantly, this effect was seen even in pan-resistant strains of B. cenocepacia (HI4277, a pan-resistant outbreak isolate from CF patients; FIG. 11, Panel B). […] The MIC of PPMO #19 was 8 μM in H14277 (FIG. 10), illustrating that PPMOs' ability to inhibit growth is not dependent on the underlying level of antibiotic resistance in any particular strain, an important finding with positive implications for this approach.

B. cenocepacia HI4277 = experiment: 24 hour growth with acpP PPMOs (bactericidal test), pan-resistant strain; type: cell-based; conditions: FIG. 11 Panel B
Procedure: (§1) Two different isolates of B. cenocepacia were incubated for 24 hours in the presence or absence of different acpP PPMOs. All three acpP PPMOs caused a significant reduction of growth in the clinical CF isolate B. cenocepacia K56-2 (Panel A) and this effect was also seen for the pan-resistant strain B. cenocepacia H14277 (Panel B).
(§2) Many members of the Bcc are intrinsically antibiotic resistant making treatment difficult. B. cenocepacia is one of the most common species encountered by cystic fibrosis (CF) patients. Two different isolates of B. cenocepacia were incubated for 24 hours in the presence or absence of different acpP PPMOs (FIG. 11).

B. cenocepacia J2315 = experiment: MBEC peg biofilm assay, crystal violet and confocal microscopy; type: cell-based; conditions: 10 μM
Procedure: B. cenocepacia J2315 was grown utilizing MBEC biofilm assay plates for 48 hours in the presence of either acpP PPMO (10 μM), scrambled PPMO (10 μM), peptide or media alone. Biofilm production was measure utilizing a crystal violet method.
The pegs were moved to fresh media containing either nothing, the Scrambled (Scr) control PPMO at 10 μM concentration, or the acpP PPMO at 10 μM concentration. The MBEC pegs were incubated for another 48 hours and then stained with fluorescent green peanut-agglutinin stain for the biofilm and imaged on confocal microscopy.
The formation of biofilm is a significant virulence trait and is utilized by both P. aeruginosa and the Bcc. Bcc biofilms were grown and PPMOs were tested for their ability to both prevent biofilm formation and to deconstruct existing biofilms. B. cenocepacia J2315 (a genome sequenced, epidemic CF isolate) was grown utilizing MBEC biofilm assay plates which contain a peg that grows reproducible biofilms from day to day. J2315 was grown for 48 hours in the presence of either acpP PPMO (10 μM), scrambled PPMO (10 μM), peptide or media alone (FIG. 13). The acpP-targeted PPMO (PPMO #19) has the following sequence: CCATTACCCCT (SEQ ID NO: 27). The PPMO was conjugated at its 5′ end to the beta-alanine residue of (RFF)3RXB (SEQ ID NO: 41). Biofilm production was measured utilizing a crystal violet method. […]

B. cenocepacia K56-2 [1] = experiment: 24 hour growth with acpP PPMOs (bactericidal test); type: cell-based; conditions: 16 μM, FIG. 11 Panel A
Procedure: as §1, §2

39 Bcc clinical isolates = experiment: PPMO MIC against a panel of 39 Bcc clinical isolates; type: cell-based, Burkholderia cepacia complex; conditions: panel of 39 isolates; FIG. 10
Procedure: A variety of Bcc isolates were tested, including clinical isolates obtained from various body sites with varying levels of antibiotic resistance. The strain bank included 39 isolates that comprised the most frequently encountered species that have been reported to cause human disease. […] All 6 of these PPMOs targeted AcpP (an acyl carrier protein associated with fatty acid biosynthesis). Differences in the 6 PPMOs related to alternative positioning sites on the target mRNA.

[2] = tested on: adeA-expressing Acinetobacter baumanii; experiment: MIC of gentamicin, tobramycin and tetracycline with added adeA-targeted PPMO (CLSI microdilution); type: cell-based; conditions: concentration dependent
B. multivorans = experiment: Aerosol PPMO in pulmonary infection model, lung burden; type: in vivo; conditions: single 300 μg aerosol dose 6 hours post-infection; CGD mice; 24 hours after infection
Procedure: Chronic granulomatous disease (CGD) mice were used as a Bcc infection model. An Aerogen nebulizer was used to deliver either scrambled (Scr) PPMO ([…]) or acpP PPMO (PPMO #15, Table 2C, 300 μg or 30 μg) as a one-time dose 6 hours post-infection. Mice were euthanized 24 hours after infection and lung burden was determined as CFU/g.
Delivering PPMOs directly to the lung in the setting of chronic pulmonary infections would be useful. Chronic granulomatous disease (CGD) mice were used as a Bcc infection model. These mice develop significant morbidity and mortality when infected with various Bcc strains. Mice were infected intranasally with a clinical B. multivorans isolate (FIG. 15). An Aerogen nebulizer was used to deliver either scrambled (Scr) PPMO (300 μg) or acpP PPMO (PPMO #15, 300 μg or 30 μg) as a one-time dose 6 hours post-infection. The acpP-targeted PPMO has the following sequence: GTCCATTACCC (SEQ ID NO: 25). The PPMO was conjugated at its 5′ end to the C-terminal β-alanine residue of (RFF)3RXB (SEQ ID NO: 41). Mice were euthanized 24 hours after infection and lung burden was determined. The single 300 μg dose of the acpP PPMO reduced the lung burden by 93% and was a statistically significant decrease. Aerosol delivery of PPMOs is a viable therapeutic strategy and importantly, this is the first time that nebulized delivery of Bcc PPMOs has been attempted.

B. cenocepacia K56-2 [3] = experiment: Bcc growth in artificial CF sputum; type: cell-based
Procedure: B. cenocepacia K56-2 was incubated alone or in the presence of either a scrambled sequence (Scr) placebo PPMO or acpP PPMO (PPMO #15, Table 2C) at 10 μM or 20 μM concentration. Media or PPMO was dosed at 2, 8 and 12 hours. Samples were plated at 24 hours and CFU/ml was determined.
PPMOs were tested to determine whether they retained their activity in sputum. Using a well-described method for making “artificial CF sputum,” experiments were conducted to see whether a PPMO could reduce the burden of Bcc in this environment (FIG. 12). B. cenocepacia K56-2 was incubated alone or in the presence of either a scrambled-sequence (Scr) placebo PPMO or acpP PPMO (PPMO #15). The acpP-targeted PPMO has the following sequence: GTCCATTACCC (PPMO #15; SEQ ID NO: 25). The PPMO was conjugated at its 5′ end to the C-terminal β-alanine residue of (RFF)3RXB (SEQ ID NO: 41). Media or PPMO was dosed at 2, 8 and 12 hours. Samples were plated at 24 hours and CFU/ml was determined. The acpP PPMO was able to reduce the organism burden (both at 10 and 20 μM dosing). At 10 μM dosing, there was an approximately 2-log reduction in CFU/ml by 24-hours compared to no treatment control. At 20 μM dosing, there was a >3-log reduction seen. This reduction was apparent as early as 8 hours in the 20 μM group and 12 hours in the 10 μM group. These experiments indicate that PPMOs remain active even in the thick viscous sputum that is seen in CF patients. This is the first time that activity of PPMOs has been tested in sputum.

C[C@@H](O)[C@H]1C(=O)N2C(C(=O)O)=C(S[C@@H]3CN[C@H](C(=O)N(C)C)C3)[C@H](C)[C@H]12 [meropenem]
MIC (Klebsiella pneuomoniae): ~64 µM

PPMO #19: acpP-targeted PMO CCATTACCCCT (SEQ ID NO: 27); 5′ (RFF)3RXB- peptide; 3′ H (all phosphorodiamidate morpholino (PMO); 5' end conjugated to (RFF)3RXB peptide via beta-alanine, further chemistry not fully specified)
MIC (B. cenocepacia H14277): 8 µM
bactericidal effect (B. cenocepacia HI4277): bactericidal
reduced biofilm formation compared to controls (B. cenocepacia J2315; 48 hours, crystal violet, FIG. 13): > 50%
amount of existing biofilm present (B. cenocepacia J2315; 48 h biofilm then 48 hours more, confocal microscopy and crystal violet, FIG. 14C): significantly reduced
reduction of growth compared to the starting inoculum (B. cenocepacia K56-2 [1]): > 3 log
IC75 (39 Bcc clinical isolates): 4 µM

PPMO #5: adeA-targeted PMO ATA CTG TCC AA (SEQ ID NO: 15); 5′ TEG; 3′ (RXR)4XB- peptide (antisense ATACTGTCCAA; all phosphorodiamidate morpholino (PMO), 5' {TEG}; 3' end conjugated to (RXR)4XB peptide via beta-alanine)
MIC of gentamicin ([2]; FIG. 2): significantly reduced
MIC of tobramycin ([2]; FIG. 3): significantly reduced
MIC of tetracycline ([2]; FIG. 4): significantly reduced

PPMO #15: acpP-targeted PMO GTCCATTACCC (SEQ ID NO: 25); 5′ (RFF)3RXB- peptide; 3′ H (all phosphorodiamidate morpholino (PMO); 5' end conjugated to (RFF)3RXB peptide via beta-alanine, further chemistry not fully specified)
reduced the lung burden (B. multivorans): 93%
reduction in CFU/ml compared to no treatment control (B. cenocepacia K56-2 [3]; 10 μM dosing at 2, 8 and 12 hours, by 24-hours): approximately 2 log
time at which the reduction was apparent (B. cenocepacia K56-2 [3]; 10 μM group): 12 h
reduction in CFU/ml compared to no treatment control (B. cenocepacia K56-2 [3]; 20 μM dosing at 2, 8 and 12 hours, 24 hours): > 3 log
time at which the reduction was apparent (B. cenocepacia K56-2 [3]; 20 μM group): 8 h

Source: patent US11021706B2, “Antisense antibacterial compounds and methods” (priority 2014, dated 2021)
